Results on one compound are retold here after patent US20250352539A1, “COMBINATION THERAPY FOR TREATING CANCER” (AstraZeneca AB, priority 2022, published 2025).

Holding throughout (test): 144-hour CellTiter-Glo 2.0 proliferation assay
Assay type in all cases: cell-based
For orientation: Cellular ATP, detected with luciferase, serves as a proxy for viable cell number.

The subject of one test is A2780. Particulars: Homo sapiens; A2780 ovarian; monotherapy; read-out: mono GI50. Here is the method: (§1) Combination profiling was carried out in a panel of cancer cell lines utilising Horizon Discovery's High Throughput Screening platform.
(§2) Cell lines that have been preserved in liquid nitrogen are thawed and expanded in growth media (see Table 1). Once cells have reached expected doubling times, screening begins. Cells are seeded in 25 μl of growth media in black 384-well tissue culture treated plates (seeding density as noted in Table 11).
(§3) Cells are equilibrated in assay plates via centrifugation and placed at 37° C. 5% CO2 for twenty-four hours before treatment.
(§4) Compounds are transferred to assay plates using and Echo acoustic liquid handling system. 25 nl of each compound was added at the appropriate concentration for all combination dose points. Therefore, final assay volume would be […]. Assay plates are incubated with compound for 6 days and are then analysed using CellTiter-Glo 2.0. All data points are collected via automated processes and are subject to quality control and analysed.
(§5) Growth Inhibition (GI) is reported as a measure of cell growth. The GI percentages are calculated by applying the following test and equation: […]
(§6) where T is the signal measure for a test article, V is the untreated/vehicle-treated control measure, and Vo is the untreated/vehicle control measure at time zero (also colloquially referred as T0 plates). This formula is derived from the Growth Inhibition calculation used in the National Cancer Institute's NCI-60 high throughput screen. For the purposes of this report, all data analysis was performed in Growth Inhibition (except where noted).

The test system of the next test is CFPAC-1. The following applies: Homo sapiens; CFPAC-1 pancreatic; monotherapy; read-out: mono GI50. Here is the method:
as §1, §2, §3, §4, §5, §6

Another test has as its system LS-513. The following applies: Homo sapiens; LS-513 colorectal; monotherapy; read-out: mono GI50. Here is the method:
as §1, §2, §3, §4, §5, §6

The subject of the next test is OV7. Particulars: OV7 ovarian; monotherapy; read-out: mono GI50. Here is the method:
as §1, §2, §3, §4, §5, §6

Another test has as its system SK-OV-3. Particulars: Homo sapiens; SK-OV-3 ovarian; monotherapy; read-out: mono GI50. Here is the method:
as §1, §2, §3, §4, §5, §6

In a further test the test system is SNU-324. The following applies: SNU-324 pancreatic; monotherapy; read-out: mono GI50. Here is the method:
as §1, §2, §3, §4, §5, §6

A further test deals with SW620. The following applies: Homo sapiens, SW-620; SW620 colorectal; monotherapy; read-out: mono GI50. Here is the method:
as §1, §2, §3, §4, §5, §6

The structures appear in SMILES notation. Values joined by “and” are separate entries in the source; they are usually repeats but may differ in a detail not shown here. Equal values may be shown once.

As a reminder, the GI50 is the concentration at which growth is held to half of that of the control.

Take `C[C@@H]1COCCN1c1cc(C2([S@](C)(=N)=O)CC2)nc(-c2ccnc3[nH]ccc23)n1` [AZD6738, 4-{4-[(3R)-3-Methylmorpholin-4-yl]-6-[1-((R)—S-methylsulfonimidoyl)cyclopropyl]pyrimidin-2-yl}-1H-pyrrolo[2,3-b]-pyridine]: the GI50 in the test with A2780 is 667 nM; in the test on CFPAC-1, 757 nM; in the test on LS-513, 645 nM; with OV7, 1920 nM; in the test on SK-OV-3 it was 1280 nM; in the test with SNU-324, 476 nM and 534 nM. Further, the GI50 in the test with SW620 is 853 nM.
